The source made the active and inactive calls.
Columns and labels:
Cytochrome P450 2C9 = Cytochrome P450 2C9 (Homo sapiens, UniProt P11712)
Tumor necrosis factor = Tumor necrosis factor (Homo sapiens, UniProt P01375); assay: TNFa-triggered NF-kB activation inhibitors, SAR follow-up, cell-based, revised (AID 2337); format: functional
[1] = molecular target: T1, Nucleotide-binding oligomerization domain-containing protein 1 (Homo sapiens, UniProt Q9Y239); assay: NOD1 signaling inhibitors, SAR follow-up, revised (AID 2333); format: functional
T1 sequence (Q9Y239 whole entry): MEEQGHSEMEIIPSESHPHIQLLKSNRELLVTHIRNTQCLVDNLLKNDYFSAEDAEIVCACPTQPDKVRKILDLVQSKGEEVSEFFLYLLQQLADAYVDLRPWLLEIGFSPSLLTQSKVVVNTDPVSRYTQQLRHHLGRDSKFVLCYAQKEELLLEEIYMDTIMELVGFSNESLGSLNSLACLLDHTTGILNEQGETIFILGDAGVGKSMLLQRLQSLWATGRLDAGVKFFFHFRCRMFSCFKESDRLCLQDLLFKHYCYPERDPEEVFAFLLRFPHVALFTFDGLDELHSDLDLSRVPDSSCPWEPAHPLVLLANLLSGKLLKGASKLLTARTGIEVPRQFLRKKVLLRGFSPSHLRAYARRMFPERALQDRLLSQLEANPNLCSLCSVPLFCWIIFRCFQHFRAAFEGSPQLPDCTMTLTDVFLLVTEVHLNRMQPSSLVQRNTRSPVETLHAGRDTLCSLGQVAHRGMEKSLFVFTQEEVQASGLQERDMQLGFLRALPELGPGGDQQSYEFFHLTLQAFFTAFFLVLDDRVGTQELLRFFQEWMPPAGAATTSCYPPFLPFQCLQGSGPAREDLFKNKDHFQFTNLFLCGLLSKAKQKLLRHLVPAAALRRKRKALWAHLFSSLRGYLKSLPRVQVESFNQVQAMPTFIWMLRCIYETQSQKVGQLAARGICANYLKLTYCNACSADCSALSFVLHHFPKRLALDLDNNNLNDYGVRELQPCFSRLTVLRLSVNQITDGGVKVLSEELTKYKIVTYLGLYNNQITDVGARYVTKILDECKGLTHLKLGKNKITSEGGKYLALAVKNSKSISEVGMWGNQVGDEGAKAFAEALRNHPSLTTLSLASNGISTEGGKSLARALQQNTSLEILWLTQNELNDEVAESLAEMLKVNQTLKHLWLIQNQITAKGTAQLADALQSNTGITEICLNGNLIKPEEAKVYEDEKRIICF

[2] = molecular target: Nucleotide-binding oligomerization domain-containing protein 2 (Homo sapiens, UniProt Q9HC29); assay: PubChem AID 2334; format: functional
Sequence of Nucleotide-binding oligomerization domain-containing protein 2 (Q9HC29 whole entry, the tested form may be a part): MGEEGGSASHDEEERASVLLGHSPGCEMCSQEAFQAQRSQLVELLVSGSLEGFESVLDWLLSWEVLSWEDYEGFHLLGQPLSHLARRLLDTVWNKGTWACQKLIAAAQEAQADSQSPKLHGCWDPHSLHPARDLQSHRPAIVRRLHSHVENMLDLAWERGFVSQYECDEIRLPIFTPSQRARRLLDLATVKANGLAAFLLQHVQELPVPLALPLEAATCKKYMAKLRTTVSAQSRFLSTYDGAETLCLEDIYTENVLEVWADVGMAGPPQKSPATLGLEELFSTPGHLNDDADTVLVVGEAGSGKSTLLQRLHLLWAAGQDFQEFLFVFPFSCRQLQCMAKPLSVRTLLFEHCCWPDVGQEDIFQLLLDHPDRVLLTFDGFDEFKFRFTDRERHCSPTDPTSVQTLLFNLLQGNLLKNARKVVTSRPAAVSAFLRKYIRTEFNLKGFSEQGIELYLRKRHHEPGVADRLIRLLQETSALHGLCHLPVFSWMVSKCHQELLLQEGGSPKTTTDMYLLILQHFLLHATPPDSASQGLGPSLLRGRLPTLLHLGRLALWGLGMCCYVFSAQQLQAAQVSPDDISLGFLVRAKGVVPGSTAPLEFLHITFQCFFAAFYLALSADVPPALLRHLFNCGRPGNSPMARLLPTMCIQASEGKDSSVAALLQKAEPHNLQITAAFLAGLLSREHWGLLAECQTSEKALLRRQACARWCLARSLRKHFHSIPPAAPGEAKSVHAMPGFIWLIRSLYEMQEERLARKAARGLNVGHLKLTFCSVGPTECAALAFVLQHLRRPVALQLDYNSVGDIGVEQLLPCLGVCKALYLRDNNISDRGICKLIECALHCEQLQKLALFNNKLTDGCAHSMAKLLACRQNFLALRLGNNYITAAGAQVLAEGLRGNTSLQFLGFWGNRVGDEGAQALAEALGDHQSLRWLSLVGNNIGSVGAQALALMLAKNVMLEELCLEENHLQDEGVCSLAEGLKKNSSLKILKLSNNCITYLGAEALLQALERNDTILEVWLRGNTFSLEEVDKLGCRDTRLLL

HEK293 = assay: cells; details: Homo sapiens;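 note: cells exposed to compound for 14 hours overnight before viability readout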
Exodeoxyribonuclease V = molecular target: T2, Exodeoxyribonuclease V (Escherichia coli (strain K12), UniProt P04993+P07648+P08394); assay: E. coli RecBCD inhibitors, dose response, counter-screen for AddAB inhibitor project, absorbance, V66 E. coli, mutant T4 phage (AID 492957); format: functional, cell-based, Escherichia coli str. K-12 substr. MG1655
T2 sequence (P04993 whole entry): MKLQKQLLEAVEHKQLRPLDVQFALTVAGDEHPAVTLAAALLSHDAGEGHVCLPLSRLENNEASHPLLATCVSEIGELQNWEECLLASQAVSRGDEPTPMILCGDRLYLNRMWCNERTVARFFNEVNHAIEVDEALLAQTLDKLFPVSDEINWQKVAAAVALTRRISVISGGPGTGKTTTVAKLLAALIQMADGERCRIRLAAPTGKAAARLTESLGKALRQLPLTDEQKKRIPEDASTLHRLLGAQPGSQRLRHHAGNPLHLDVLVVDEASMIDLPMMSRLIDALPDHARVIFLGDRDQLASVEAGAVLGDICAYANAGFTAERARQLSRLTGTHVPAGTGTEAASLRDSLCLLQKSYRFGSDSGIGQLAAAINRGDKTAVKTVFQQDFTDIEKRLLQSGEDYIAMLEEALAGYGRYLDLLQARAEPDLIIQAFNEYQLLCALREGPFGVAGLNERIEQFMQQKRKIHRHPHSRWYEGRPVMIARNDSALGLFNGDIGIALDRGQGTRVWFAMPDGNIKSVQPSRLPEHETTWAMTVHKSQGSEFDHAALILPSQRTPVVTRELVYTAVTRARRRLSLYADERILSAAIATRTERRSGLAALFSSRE
T2 sequence (P07648 whole entry): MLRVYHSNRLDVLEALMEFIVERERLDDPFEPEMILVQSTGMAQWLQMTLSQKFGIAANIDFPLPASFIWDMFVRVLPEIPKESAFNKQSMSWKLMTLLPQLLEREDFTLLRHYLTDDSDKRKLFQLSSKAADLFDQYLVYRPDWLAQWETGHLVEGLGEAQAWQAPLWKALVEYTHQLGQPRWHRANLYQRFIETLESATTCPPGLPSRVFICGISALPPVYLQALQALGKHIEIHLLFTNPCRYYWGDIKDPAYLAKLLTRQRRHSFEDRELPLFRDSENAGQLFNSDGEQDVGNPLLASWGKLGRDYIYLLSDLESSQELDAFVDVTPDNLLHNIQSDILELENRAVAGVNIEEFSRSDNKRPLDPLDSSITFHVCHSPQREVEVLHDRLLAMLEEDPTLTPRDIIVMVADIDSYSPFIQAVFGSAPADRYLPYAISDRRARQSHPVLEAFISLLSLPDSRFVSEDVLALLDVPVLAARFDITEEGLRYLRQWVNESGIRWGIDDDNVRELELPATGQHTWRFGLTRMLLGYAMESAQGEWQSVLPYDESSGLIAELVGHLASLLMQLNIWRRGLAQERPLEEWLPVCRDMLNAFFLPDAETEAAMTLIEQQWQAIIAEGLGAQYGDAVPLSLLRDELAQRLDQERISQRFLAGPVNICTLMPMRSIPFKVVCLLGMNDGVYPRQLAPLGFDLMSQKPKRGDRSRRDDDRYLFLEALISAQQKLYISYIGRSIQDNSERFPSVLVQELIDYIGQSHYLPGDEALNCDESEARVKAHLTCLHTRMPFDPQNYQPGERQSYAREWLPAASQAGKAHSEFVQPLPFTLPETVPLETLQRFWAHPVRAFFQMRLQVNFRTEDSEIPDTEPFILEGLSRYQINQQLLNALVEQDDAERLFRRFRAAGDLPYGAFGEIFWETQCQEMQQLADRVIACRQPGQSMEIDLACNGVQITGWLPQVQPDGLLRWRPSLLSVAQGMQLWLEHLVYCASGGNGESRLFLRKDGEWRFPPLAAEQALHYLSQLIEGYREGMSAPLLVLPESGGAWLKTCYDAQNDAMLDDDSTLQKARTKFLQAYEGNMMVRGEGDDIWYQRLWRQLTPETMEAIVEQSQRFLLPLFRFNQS
T2 sequence (P08394 whole entry): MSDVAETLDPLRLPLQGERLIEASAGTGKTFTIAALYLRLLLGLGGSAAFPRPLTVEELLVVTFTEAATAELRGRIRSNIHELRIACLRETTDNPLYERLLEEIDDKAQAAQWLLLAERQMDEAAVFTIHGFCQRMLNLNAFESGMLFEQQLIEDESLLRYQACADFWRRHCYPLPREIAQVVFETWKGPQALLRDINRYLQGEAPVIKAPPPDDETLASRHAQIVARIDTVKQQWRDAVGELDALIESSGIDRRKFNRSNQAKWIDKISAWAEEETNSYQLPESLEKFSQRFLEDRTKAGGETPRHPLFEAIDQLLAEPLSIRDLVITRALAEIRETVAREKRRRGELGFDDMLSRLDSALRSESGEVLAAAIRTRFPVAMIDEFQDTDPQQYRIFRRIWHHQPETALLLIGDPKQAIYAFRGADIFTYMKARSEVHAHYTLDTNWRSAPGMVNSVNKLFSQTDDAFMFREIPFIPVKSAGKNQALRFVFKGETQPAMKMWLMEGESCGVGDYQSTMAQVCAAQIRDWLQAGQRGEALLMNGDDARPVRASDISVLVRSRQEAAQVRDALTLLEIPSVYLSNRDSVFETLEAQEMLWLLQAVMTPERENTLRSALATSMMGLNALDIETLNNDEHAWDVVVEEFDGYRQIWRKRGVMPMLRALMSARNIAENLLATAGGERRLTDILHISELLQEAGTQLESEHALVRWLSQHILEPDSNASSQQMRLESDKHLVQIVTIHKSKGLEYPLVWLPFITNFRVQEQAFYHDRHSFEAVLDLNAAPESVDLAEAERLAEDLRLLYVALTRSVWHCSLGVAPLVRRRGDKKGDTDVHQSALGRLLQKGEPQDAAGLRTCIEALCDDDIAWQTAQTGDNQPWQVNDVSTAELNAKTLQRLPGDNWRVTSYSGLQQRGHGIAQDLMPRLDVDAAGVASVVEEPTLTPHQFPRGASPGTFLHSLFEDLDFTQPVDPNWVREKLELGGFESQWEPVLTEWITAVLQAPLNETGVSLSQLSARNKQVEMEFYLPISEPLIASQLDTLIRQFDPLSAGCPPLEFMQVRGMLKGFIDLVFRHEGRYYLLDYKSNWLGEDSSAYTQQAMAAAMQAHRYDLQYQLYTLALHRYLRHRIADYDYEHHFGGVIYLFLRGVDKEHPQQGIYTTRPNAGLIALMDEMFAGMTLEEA

[3] = Counterscreen for AddAB inhibitors: absorbance-based bacterial cell-based high throughput dose response assay for inhibitors of bacterial viability. [Related pubchem assays (depositor defined):AID435030, AID449728, AID449731, AID488942, AID488955, AID488956]; format: functional
[4] = NIH-3T3 fibroblast cytotoxicity, dose response, cytotoxicity control, cell-based, fluorescence, Alamar Blue, secondary assay (AID 2327); format: functional;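 note: NIH-3T3 mouse fibroblasts cultured with fluconazole at 8 µg/mL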
[5] = inhibitors of firefly luciferase expression or activity, dose response, H4 neuroglioma cells, luminescence (AID 1990); format: functional, cell-based
cells [6] = format: functional, cell-based
[7] = Luminescence Cell-Based Dose Response HTS to Identify Inhibitors of 5'UTR Stem-Loop Driven Prion Protein mRNA Translation in H4 Neuroglioblastoma Cells. [Related pubchem assays: 1827 (Project Summary), 1813 (Primary HTS)]; format: functional
[8] = inhibitors of SNCA 5'UTR-driven reporter translation, confirmation, H4 neuroglioma cells, luminescence (AID 1988); format: functional, cell-based
[9] = inhibitors of intracellular T. cruzi replication, confirmation, NIH3T3 host cells, beta-gal luminescence (AID 2044); format: functional, cell-based;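 note: intracellular parasites grown in NIH/3T3 mouse fibroblasts as host cells; luminescent beta-galactosidase reporter signal from transgenic T. cruzi replicating inside host cells; inhibitors lower the luminescence signal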
cells [10] = format: functional, cell-based; remark: listed apart in the source
[11] = cytotoxicity toward NIH3T3 fibroblasts, dose response, counter-screen, cell-based, ATP luminescence, mouse fibroblasts (AID 2010); format: functional;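 note: cells exposed to compound for about 90 hours before reading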
INS1 = assay: beta cell apoptosis inhibitors, cytokine rescue, dose response, luminescence, retest (AID 449756); format: functional, cell-based; details: Rattus norvegicus;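 note: cell death triggered by IL-1 beta plus TNF-alpha plus IFN-gamma mixture; protective hits raise ATP signal compared with cytokine alone wells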
SUMO-activating enzyme = SUMO-activating enzyme (Homo sapiens, UniProt Q9UBT2); assay: SUMOylation inhibitor hit validation, confirmation, SUMOylation inhibitor project, biochemical, AlphaScreen (AID 2018); format: functional
Sequence of SUMO-activating enzyme (Q9UBE0 whole entry): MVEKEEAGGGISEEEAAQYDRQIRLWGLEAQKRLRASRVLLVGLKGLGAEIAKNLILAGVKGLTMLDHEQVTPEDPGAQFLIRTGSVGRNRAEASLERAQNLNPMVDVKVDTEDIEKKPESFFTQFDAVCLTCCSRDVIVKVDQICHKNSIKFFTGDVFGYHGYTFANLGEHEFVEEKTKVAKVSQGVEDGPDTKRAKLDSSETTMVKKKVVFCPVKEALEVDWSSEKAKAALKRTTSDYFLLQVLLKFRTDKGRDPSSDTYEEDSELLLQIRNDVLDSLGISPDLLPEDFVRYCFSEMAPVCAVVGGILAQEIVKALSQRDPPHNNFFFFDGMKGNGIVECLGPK
Sequence of SUMO-activating enzyme (Q9UBT2 whole entry): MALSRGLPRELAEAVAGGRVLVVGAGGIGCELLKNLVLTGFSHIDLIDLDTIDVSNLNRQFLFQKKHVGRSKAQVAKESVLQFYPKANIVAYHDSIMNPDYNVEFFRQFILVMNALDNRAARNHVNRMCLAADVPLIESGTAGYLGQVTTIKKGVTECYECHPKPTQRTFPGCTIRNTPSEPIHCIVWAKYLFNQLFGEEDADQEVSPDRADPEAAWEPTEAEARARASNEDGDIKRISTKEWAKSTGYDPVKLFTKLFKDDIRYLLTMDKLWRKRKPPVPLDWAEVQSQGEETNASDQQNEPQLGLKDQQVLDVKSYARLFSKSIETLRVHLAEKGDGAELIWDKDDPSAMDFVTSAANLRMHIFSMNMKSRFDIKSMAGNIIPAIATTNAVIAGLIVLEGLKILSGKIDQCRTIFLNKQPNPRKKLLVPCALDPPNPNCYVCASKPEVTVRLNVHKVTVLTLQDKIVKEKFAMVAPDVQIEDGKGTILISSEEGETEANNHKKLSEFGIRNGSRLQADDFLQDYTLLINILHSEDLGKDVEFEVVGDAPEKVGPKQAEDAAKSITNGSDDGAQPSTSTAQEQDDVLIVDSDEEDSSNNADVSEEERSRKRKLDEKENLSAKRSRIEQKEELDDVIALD

Cytochrome P450 2D6 = Cytochrome P450 2D6 (Homo sapiens, UniProt P10635);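 note: CYP2D6 member of a cytochrome P450 panel assay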
Sequence of Cytochrome P450 2D6 (P10635 whole entry): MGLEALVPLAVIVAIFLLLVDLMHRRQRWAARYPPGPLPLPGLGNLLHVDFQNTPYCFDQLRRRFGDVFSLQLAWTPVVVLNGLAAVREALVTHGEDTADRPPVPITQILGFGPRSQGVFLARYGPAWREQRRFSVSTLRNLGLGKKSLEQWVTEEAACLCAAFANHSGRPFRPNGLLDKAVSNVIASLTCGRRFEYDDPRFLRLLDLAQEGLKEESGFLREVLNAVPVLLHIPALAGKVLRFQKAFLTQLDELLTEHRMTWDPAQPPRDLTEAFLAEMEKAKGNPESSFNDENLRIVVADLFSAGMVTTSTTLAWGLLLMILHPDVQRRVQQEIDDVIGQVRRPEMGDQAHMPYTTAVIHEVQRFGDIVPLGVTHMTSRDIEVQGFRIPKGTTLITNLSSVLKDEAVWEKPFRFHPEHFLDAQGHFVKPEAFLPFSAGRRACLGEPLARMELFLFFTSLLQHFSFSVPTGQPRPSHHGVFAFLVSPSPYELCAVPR

[12] = THP-1 cell cytotoxicity, dose response, cytotoxicity control for non-replicating M. tuberculosis project (AID 489025); format: functional
[13] = HepG2 cell cytotoxicity, dose response, cytotoxicity control for non-replicating M. tuberculosis project (AID 489018); format: functional; details: Mycobacterium tuberculosis
[14] = Vero E6 cell cytotoxicity, dose response, cytotoxicity control for non-replicating M. tuberculosis project, secondary assay (AID 492998); format: functional, VeroE6; details: Vero C1008
cells [15] = format: functional

Sequence of Cytochrome P450 2C9 (P11712 whole entry): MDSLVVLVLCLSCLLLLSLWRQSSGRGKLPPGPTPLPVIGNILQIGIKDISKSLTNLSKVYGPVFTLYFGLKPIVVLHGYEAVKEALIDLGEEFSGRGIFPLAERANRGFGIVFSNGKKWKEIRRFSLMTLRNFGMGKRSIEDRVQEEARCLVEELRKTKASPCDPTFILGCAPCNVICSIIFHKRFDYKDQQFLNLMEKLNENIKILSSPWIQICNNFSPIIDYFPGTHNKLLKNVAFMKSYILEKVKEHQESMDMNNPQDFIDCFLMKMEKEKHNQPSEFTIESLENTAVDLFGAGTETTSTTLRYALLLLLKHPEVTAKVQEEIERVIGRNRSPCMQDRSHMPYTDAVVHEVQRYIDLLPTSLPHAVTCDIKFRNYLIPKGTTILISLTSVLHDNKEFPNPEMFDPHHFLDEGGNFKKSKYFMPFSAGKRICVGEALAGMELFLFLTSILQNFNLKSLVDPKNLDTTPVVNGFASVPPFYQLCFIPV
Sequence of Tumor necrosis factor (P01375 whole entry, the tested form may be a part): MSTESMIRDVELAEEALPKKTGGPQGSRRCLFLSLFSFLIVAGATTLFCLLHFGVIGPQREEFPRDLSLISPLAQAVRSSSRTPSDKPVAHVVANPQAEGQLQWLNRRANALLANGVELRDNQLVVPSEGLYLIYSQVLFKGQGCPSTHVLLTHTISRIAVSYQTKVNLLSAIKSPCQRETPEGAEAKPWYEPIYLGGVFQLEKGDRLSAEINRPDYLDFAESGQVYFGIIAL

Cc1ccnc(NS(=O)(=O)c2ccc(N)cc2)n1 [SULFAMERAZINE]
AC50 (Cytochrome P450 2C9): inconclusive

O=C(Nc1nc2ccccc2n1Cc1ccc(Cl)cc1)C1CCCCC1
IC50 (Tumor necrosis factor): > 20 µM (inactive) | IC50 [1]: > 20 µM (inactive) | IC50 [2]: > 20 µM (inactive) | IC50 (HEK293): > 20 µM (inactive)

O=C(O)c1c(-n2cccc2)sc2c1CCCC2
IC50 (Tumor necrosis factor): > 20 µM (inactive) | IC50 [1]: > 20 µM (inactive) | IC50 [2]: > 20 µM (inactive) | IC50 (HEK293): > 20 µM (inactive)

COc1cccc(-c2nc(N(C)C)c3ccccc3n2)c1
AC50 (Cytochrome P450 2C9): inconclusive

O=C(Nc1nc2ccccc2n1Cc1ccc(Cl)cc1)c1ccc(F)cc1
IC50 (Tumor necrosis factor): > 20 µM (inactive) | IC50 [1]: > 20 µM (inactive) | IC50 [2]: > 20 µM (inactive) | IC50 (HEK293): > 20 µM (inactive)

COc1ccc(NC(=O)Cn2cc(C(=O)c3ccco3)c3ccccc32)cc1
IC50 (Exodeoxyribonuclease V): > 119 µM (inactive) | IC50 [3]: > 119 µM (inactive)

COc1cccc(/C=N\NC(=O)c2ccc(Cn3cc(Br)c([N+](=O)[O-])n3)o2)c1O
EC50 [4]: > 150 µM (inactive) | EC50 [5]: 26 µM (active) | EC50 (cells [6]): 51.1 µM (active) | EC50 [7]: 20.2 µM (active) | EC50 [8]: 10.4 µM (active) | EC50 [9]: 1.09 µM (active) | EC50 (cells [10]): 28.6 µM (active) | EC50 [11]: > 60 µM (not active) | IC50 (Exodeoxyribonuclease V): > 119 µM (inactive) | IC50 [3]: 31.8 µM (inactive) | AC50 (INS1): 1.89 µM (active)

COc1cc(NC(=O)c2cncc(-c3ccc(C#N)cc3)c2)cc(C(=O)Nc2cccc(C(F)(F)F)c2)c1
IC50 (SUMO-activating enzyme): 53.5 µM (active)

NC(=O)CC(NC(=O)Cc1cccc2ccccc12)c1ccc(NCCc2ccccc2F)c([N+](=O)[O-])c1 (stereo not drawn)
IC50 (SUMO-activating enzyme): 39 µM (active)

N#C/C(=C(/O)COC(=O)CSc1ccc(Cl)cc1)c1nc2ccccc2[nH]1
IC50 (Tumor necrosis factor): > 20 µM (inactive) | IC50 [1]: > 20 µM (inactive) | IC50 [2]: > 20 µM (inactive) | IC50 (HEK293): > 20 µM (inactive)

CN1CCCC2(CCN(C(=O)c3ccncc3)CC2)C1
AC50 (Cytochrome P450 2D6): 7.94 µM (inconclusive) | AC50 (Cytochrome P450 2C9): inconclusive

CC(=O)Nc1nc2ccccc2n1Cc1ccccc1Cl
IC50 (Tumor necrosis factor): 19.9 µM (active) | CC50 [12]: 14.1 µM (active) | IC50 [1]: > 20 µM (inactive) | CC50 [13]: > 20 µM (active) | CC50 [14]: 15.5 µM (active) | IC50 [2]: > 20 µM (inactive) | IC50 (cells [15]): 4.15 µM (active) | IC50 (HEK293): > 20 µM (inactive)
